Assays:
Test in all cases: relative viability (nuclei count vs DMSO), 5 days (fraction); higher = more cells survive
[1] = compound: COc1cc(-c2nn([C@H]3CC[C@H](N4CCN(C(C)=O)CC4)CC3)c3ncnc(N)c23)ccc1NC(=O)c1cc2ccccc2n1C + CC(=O)Nc1cccc(-n2c(=O)n(C3CC3)c(=O)c3c(Nc4ccc(I)cc4F)n(C)c(=O)c(C)c32)c1 [Trametinib] (partner 0.02 µM)
Summary of the method: (§1)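 Medians of duplicate plates are given as relative viability. That measure is the nuclei count in treated wells divided by the count in vehicle wells. Counts were taken on 4× images of lung cancer cell lines in 1536-well plates, 5 days after pin-tool dosing the day after seeding with one drug alone or a fixed anchor-drug dose plus five library-drug doses (not always all listed) in √10 steps.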

[2] = compound: CO[C@@H]1[C@H](N(C)C(=O)c2ccccc2)C[C@H]2O[C@]1(C)n1c3ccccc3c3c4c(c5c6ccccc6n2c5c31)C(=O)NC4 [Midostaurin] + Cc1cc(Nc2cc(N3CCN(C)CC3)nc(Sc3ccc(NC(=O)C4CC4)cc3)n2)n[nH]1 [Tozasertib] (partner 0.1 µM)
Summary of the method: as §1

[3] = compound: CO[C@@H]1[C@H](N(C)C(=O)c2ccccc2)C[C@H]2O[C@]1(C)n1c3ccccc3c3c4c(c5c6ccccc6n2c5c31)C(=O)NC4 [Midostaurin] + Nc1nc2[nH]cc(CCc3ccc(C(=O)N[C@@H](CCC(=O)O)C(=O)O)cc3)c2c(=O)[nH]1 [Pemetrexed] (partner 0.2 µM)
Summary of the method: as §1

[4] = compound: COc1cc(-c2nn([C@H]3CC[C@H](N4CCN(C(C)=O)CC4)CC3)c3ncnc(N)c23)ccc1NC(=O)c1cc2ccccc2n1C + NC(=O)Nc1cc(-c2cccc(F)c2)sc1C(=O)N[C@H]1CCCNC1 [AZD7762] (partner 0.2 µM)
Summary of the method: as §1

[5] = compound: CO[C@@H]1[C@H](N(C)C(=O)c2ccccc2)C[C@H]2O[C@]1(C)n1c3ccccc3c3c4c(c5c6ccccc6n2c5c31)C(=O)NC4 [Midostaurin] + Nc1ncn([C@H]2C[C@H](O)[C@@H](CO)O2)c(=O)n1 [Decitabine] (partner 2 µM)
Summary of the method: as §1

| Cell Line | relative viability ([1]; first compound 0.0128 µM) | relative viability ([1]; first compound 0.04048 µM) | relative viability ([1]; first compound 0.128 µM) | relative viability ([1]; first compound 1.28 µM) | relative viability ([2]; first compound 0.01 µM) | relative viability ([2]; first compound 0.03162 µM) | relative viability ([2]; first compound 0.1 µM) | relative viability ([2]; first compound 0.3162 µM) | relative viability ([3]; first compound 0.01 µM) | relative viability ([3]; first compound 0.03162 µM) | relative viability ([3]; first compound 0.1 µM) | relative viability ([3]; first compound 0.3162 µM) | relative viability ([4]; first compound 0.0128 µM) | relative viability ([4]; first compound 0.04048 µM) | relative viability ([4]; first compound 0.128 µM) | relative viability ([4]; first compound 1.28 µM) | relative viability ([5]; first compound 0.01 µM) | relative viability ([5]; first compound 0.03162 µM) | relative viability ([5]; first compound 0.1 µM) | relative viability ([5]; first compound 0.3162 µM) |
| --- | --- | --- | --- | --- | --- | --- | --- | --- | --- | --- | --- | --- | --- | --- | --- | --- | --- | --- | --- | --- |
| NCI-H1395 | 1.02 | 0.945 | 0.967 | 0.667 | 0.726 | 0.785 | 0.708 | 0.769 | 0.791 | 1.09 | 0.748 | 0.846 | 0.459 | 0.394 | 0.402 | 0.322 | 0.681 | 0.81 | 0.712 | 0.702 |
| NCI-H1437 | 0.527 | 0.609 | 0.492 | 0.33 | 0.453 | 0.477 | 0.401 | 0.403 | 0.311 | 0.3 | 0.332 | 0.323 | 1.14 | 1.15 | 1.04 | 0.96 | 0.579 | 0.607 | 0.561 | 0.53 |
| NCI-H1648 | 0.478 | 0.311 | 0.386 | 0.293 | 0.511 | 0.609 | 0.417 | 0.299 | 0.671 |  |  | 0.823 | 0.686 | 0.609 | 0.75 | 0.566 | 0.499 |  |  | 0.446 |
| NCI-H1651 | 0.843 | 0.832 | 0.79 | 0.771 | 0.628 | 0.752 | 0.543 | 0.685 | 0.626 | 0.53 | 0.618 | 0.675 | 0.466 | 0.457 | 0.49 | 0.397 | 0.612 | 0.596 | 0.696 | 0.649 |
| NCI-H1666 | 0.899 | 0.835 | 0.819 | 0.918 | 0.629 | 0.572 | 0.596 | 0.488 | 0.876 | 0.812 | 0.74 | 0.722 | 0.821 | 0.841 | 0.802 | 0.741 | 0.719 | 0.684 | 0.777 | 0.716 |
| NCI-H1734 | 0.721 | 0.445 | 0.664 | 0.598 | 0.239 | 0.276 | 0.294 | 0.267 | 0.421 | 0.405 | 0.446 | 0.456 | 0.614 | 0.519 | 0.578 | 0.508 | 0.508 | 0.499 | 0.486 | 0.521 |
| NCI-H1755 | 0.907 | 0.651 | 0.769 | 0.745 | 0.521 | 0.614 | 0.535 | 0.547 | 0.447 | 0.469 | 0.42 | 0.431 | 0.501 | 0.344 | 0.371 | 0.417 | 0.778 | 0.684 | 0.715 | 0.739 |
| NCI-H1793 | 0.446 | 0.24 | 0.469 | 0.359 | 0.38 | 0.39 | 0.313 | 0.184 | 0.926 | 1.01 | 0.782 | 0.673 | 0.591 | 0.341 | 0.326 | 0.192 | 0.484 | 0.551 | 0.493 | 0.359 |
| NCI-H1915 | 0.333 | 0.141 | 0.301 | 0.241 | 0.46 | 0.435 | 0.404 | 0.412 | 0.46 | 0.472 | 0.506 | 0.477 | 0.714 | 0.665 | 0.69 | 0.448 | 0.264 | 0.26 | 0.255 | 0.255 |
| NCI-H1944 | 0.455 | 0.274 | 0.393 | 0.295 | 0.268 | 0.269 | 0.261 | 0.232 | 0.61 | 0.579 | 0.566 | 0.642 | 0.605 | 0.539 | 0.485 | 0.352 | 0.463 | 0.439 | 0.375 | 0.394 |
| NCI-H1975 | 0.328 | 0.293 | 0.349 | 0.207 | 0.732 | 0.763 | 0.716 | 0.37 | 0.298 | 0.31 | 0.271 | 0.279 | 0.761 | 0.731 | 0.632 | 0.429 | 0.368 | 0.446 | 0.366 | 0.363 |
| NCI-H1993 | 0.504 | 0.489 | 0.562 | 0.481 | 0.595 | 0.606 | 0.545 | 0.599 | 0.627 | 0.542 | 0.597 | 0.51 | 0.823 | 0.549 | 0.715 | 0.752 | 0.541 | 0.607 | 0.693 | 0.576 |
| NCI-H2085 | 0.611 | 0.643 | 0.405 | 0.334 | 0.807 | 0.764 | 0.663 | 0.582 | 0.971 | 0.784 | 0.928 | 0.632 | 1.08 | 0.929 | 0.854 | 0.427 | 0.54 | 0.525 | 0.607 | 0.523 |
| NCI-H2087 | 0.209 |  | 0.207 | 0.17 | 0.249 | 0.303 | 0.225 | 0.207 | 0.701 | 0.665 | 0.66 | 0.658 | 1.31 |  | 1.18 | 1.08 | 0.276 | 0.323 | 0.357 | 0.194 |
| NCI-H2126 | 0.55 | 0.497 | 0.508 | 0.448 | 0.861 | 0.8 | 0.844 | 0.857 | 0.672 | 0.627 | 0.711 | 0.688 | 1.06 | 0.988 | 0.976 | 0.817 | 0.549 | 0.644 | 0.612 | 0.613 |
